For this test, the system named is tumor-repopulating cells of B16-F1 melanoma. Description: Inhibitory activity on proliferation of tumor-repopulating cells (TRCs) of B16-F1 melanoma in 3D fibrin gel. Type of test: cell-based. To be noted: for IC50: colony tumor volume, read-out: IC50 of inhibition on TRCs of B16-F1 melanoma/μM. The method, then:
B16-F1 Melanoma cells were incubated with 3D fibrin gel medium (90-Pa) for 5 days, and the desired tumor-repopulating cells of melanoma were screened (Nat. Mater. 2012, 11, 734). Subsequently, the culture medium was respectively treated with collagenase and neutral protease II, and the tumor-repopulating cells of B16-F1 melanoma were released, then the obtained repopulating cells were transferred to a freshly prepared medium to be resuspended and maintained at single-cell state. The tumor-repopulating cells of B16-F1 melanoma were inoculated in 3D fibrin gel medium (90-Pa) for 5 days, with 0.1% DMSO as the negative control group, Tazarotene and Bexarotene as the positive control drugs respectively, […] for 5 days. The colony tumor size was measured and calculated, and the inhibition rate of each drug on the tumor-repopulating cells of B16-F1 melanoma was calculated. The results of inhibitory activity of the compound of the present invention on the proliferation of tumor-repopulating cells of B16-F1 melanoma were shown in Table 2 below.

The mark [1] stands for this setting: Mus musculus, B16-F1, 120 h, 10 μM, incubated 5 days, colony tumor size, read-out: Inhibition rate on TRCs of B16-F1 melanoma at a concentration of 10 μM (%).
[2] abbreviates: Mus musculus, B16-F1, dose-response curve.
The mark [3] stands for this setting: Mus musculus, B16-F1, 10 μM (Table 3), read-out: Inhibition rate on TRCs of B16-F1 melanoma at a concentration of 10 μM/%.

Where two headings read alike, the source gives them in different places.

Consider `CCOC(=O)c1ccc(C#Cc2ccc3c(c2)C(C)(C)CCS3)cc1N` [WYC-216, ethyl 2-amino-4-((4,4-dimethylthiochroman-6-yl)ethynyl)benzoate], for which, under setting [1], the inhibition at 10 µM is 84%.

For `CC1(C)CCSc2ccc(C#Cc3ccc(C(=O)O)cc3F)cc21` [WYC-310, 3-fluoro-4((4,4-dimethylthiochroman-6-yl)ethynyl)benzoic Acid], the inhibition at 10 µM under setting [1] turned out to be 76.8%.

Take `COC(=O)c1ccc(C#Cc2ccc3c(c2)C(C)(C)CCS3)c(O)c1` [WYC-107, methyl 4-((4,4-dimethylthiochroman-6-yl)ethynyl)-3-hydroxybenzoate]: the inhibition at 10 µM reads like this: under setting [1], 75%; under setting [3], 75%. For the same molecule, under setting [2], the IC50 was 2.12 µM.

As for `CCOC(=O)c1cnc(C#Cc2ccc3c(c2)C(C)(C)CCS3(=O)=O)nc1` [WYC-320, ethyl 2-((4,4-dimethyl-1,1-dioxothiochroman-6-yl)ethynyl)pyrimidin-5-carboxylate], the inhibition at 10 µM reads like this: under setting [1], 92.6%; under setting [3], 92.6%. Also, the IC50 under setting [2] amounted to 1.65 µM.

For `COC(=O)c1ccc(C#Cc2ccc3c(c2)C(C)(C)CC[S+]3[O-])cc1N` (centres unmarked) [WYC-215, methyl 2-amino-4-((4,4-dimethyl-1-oxothiochroman-6-yl)ethynyl)benzoate], the inhibition at 10 µM under setting [1] was found to be 80.2%.

For the molecule `CC(=O)Nc1cc(C#Cc2ccc3c(c2)C(C)(C)CCS3)ccc1C(=O)O` [WYC-213, 2-acetamido-4-((4,4-dimethylthiochroman-6-yl)ethynyl)benzoic Acid], the inhibition at 10 µM under setting [1] amounted to 71.1%.

Take `CC1(C)CCC(C)(C)c2cc(C#Cc3cnc(C#N)nc3)ccc21` [WYC-329, 2-cyano-5-((5,5,8,8-tetramethyl-5,6,7,8-tetrahydronaphth-2-yl)ethynyl)pyrimidine]: the inhibition at 10 µM is, setting by setting: under setting [1], 94.5%; under setting [3], 94.5%. The IC50 under setting [2] was 0.5 µM.

For `C=C(c1ccc(C(=O)O)cc1)c1cc2c(cc1C)C(C)(C)CCC2(C)C` [Bexarotene, reference compound], under setting [1], the inhibition at 10 µM was found to be 63.3%.

Regarding `CC1(C)CCSc2ccc(C#Cc3ncc(C(=O)O)cn3)cc21` [WYC-206, 2-((4,4-dimethylthiochroman-6-yl)ethynyl)pyrimidin-5-carboxylic acid], the inhibition at 10 µM under setting [1] was found to be 77.2%.

Regarding `CCOC(=O)c1cnc(C#Cc2ccc3c(c2)C(C)(C)CC[S@+]3[O-])nc1` [WYC-209A, ethyl 2-((4,4-dimethyl-1S-oxothiochroman-6-yl)ethynyl)pyrimidin-5-carboxylate], the “Inhibition rate on TRCs of B16-F1 melanoma at a concentration of 10 μM/%” value (10 μM (Table 3)) stood at 98.9%. Also, the “Inhibition rate on TRCs of B16-F1 melanoma at a concentration of 10 μM (%)” value (10 μM, incubated 5 days, colony tumor size) is listed as 98.9%. The IC50 (dose-response curve) was found to be 0.15 µM.

In the case of `CCOC(=O)c1ccc(C#Cc2ccc3c(c2)C(C)(C)CC[S+]3[O-])c([N+](=O)[O-])c1` (centres unmarked) [WYC-311, ethyl 3-nitro-4-((4,4-dimethyl-1-oxothiochroman-6-yl)ethynyl)benzoate], under setting [1], the inhibition at 10 µM was 80.2%.

On to `CCOC(=O)c1cnc(C#Cc2ccc3c(c2)C(C)(C)CCC3(C)C)cn1` [WYC-342, ethyl 5-((5,5,8,8-tetramethyl-5,6,7,8-tetrahydronaphth-2-yl)ethynyl)pyrazin-2-carboxylate], for which, under setting [1], the inhibition at 10 µM was 77.6%.

Take `CC1(C)CC[S+]([O-])c2ccc(C#Cc3ccc(C(=O)O)c(N)c3)cc21` (centres unmarked) [WYC-214, 2-amino-4-((4,4-dimethyl-1-oxothiochroman-6-yl)ethynyl)benzoic Acid]: the inhibition at 10 µM under setting [1] came to 51.6%.

As to `CCOC(=O)c1ccc(C#Cc2ccc3c(c2)C(C)(C)CC[S+]3[O-])c(F)c1F` (centres unmarked) [WYC-315, ethyl 2,3-difluoro-4-((4,4-dimethyl-1-oxothiochroman-6-yl)ethynyl)benzoate], the inhibition at 10 µM under setting [1] came to 70.1%.

As to `CCOC(=O)c1ccc(C#Cc2ccc3c(c2)C(C)(C)CC[S+]3[O-])c(NC(C)=O)c1` (centres unmarked) [WYC-318, ethyl 3-acetamido-4-((4,4-dimethyl-1-oxothiochroman-6-yl)ethynyl)benzoate], under setting [1], the inhibition at 10 µM came to 60%.

Values taken from patent publication US10556879B2, “Retinoid compound, preparation method therefor, intermediates thereof and application thereof” (SHANGHAI INSTITUTE OF ORGANIC CHEMISTRY, CHINESE ACADEMY OF …, priority 2016, dated 2020).
